Laboratory results from PMC10673995, “Discovery of a novel cardiac-specific myosin modulator using artificial intelligence-based virtual screening” (Nature Communications, 2023).
“And” between values parts separate entries of the source, which are not always exact repeats. Identical values can stand only once.

Tested on: isolated Langendorff-perfused rat hearts
Test: Langendorff-perfused rat hearts, haemodynamic parameters
Parameters: key to LVSP, individual hearts / LVEDP, individual hearts: pressure in mmHg; Max (Figure 5c): unit not given here
Settings: for Max (Figure 5c): one column per heart; for LVSP representative trace, ON: during perfusion with compound
Method: Next, we tested for the functional effects of F10 in isolated Langendorff-perfused rat hearts. Hearts were initially stabilized in modified Krebs-Henseleit (KH) solution for about 25–30 min and subsequently perfused with KH solution containing 20 μmol L^−1 F10 for 5 mins to reach a new steady state.
Rat hearts were Langendorff-perfused as described previously. Briefly, Wistar rats (Rattus norvegicus, male, 200–250 g, 7 weeks old) were anesthetized by injection of 0.9 mL sodium pentobarbitone 20% (w/v). […] The aorta was cannulated and secured with sutures (Mersilk 3‐0; Ethicon, Somerville, NJ, USA). Hearts were perfused at a constant perfusion pressure of 70 ± 2 mmHg using a peristaltic pump (Gilson Minipuls 4, Middleton, WI, USA) and a feedback control system (STH Pump Controller; AD Instruments, Oxford, UK). […] A fluid‐filled balloon, attached to a pressure transducer, was inserted into the left ventricle and inflated to give an end‐diastolic pressure between 3 and 8 mmHg. Left ventricular pressure (LVP), perfusion pressure, coronary flow and arterial and venous oxygen tensions were recorded using a PowerLab recorder and LabChart 8.0 software (ADInstruments). Functional parameters were averaged for ∼80 cardiac cycles at 5 min intervals.

[1] = 20 μmol L^−1 F10 or 1 μmol L^−1 Mavacamten
[2] = Time 11 min, during perfusion with 20 μmol L^−1 F10 or 1 μmol L^-1 Mavacamten
[3] = Time 12 min, during perfusion with 20 μmol L^−1 F10 or 1 μmol L^-1 Mavacamten
[4] = Time 13 min, during perfusion with 20 μmol L^−1 F10 or 1 μmol L^-1 Mavacamten
[5] = Time 14 min, during perfusion with 20 μmol L^−1 F10 or 1 μmol L^-1 Mavacamten
[6] = Time 15 min, during perfusion with 20 μmol L^−1 F10 or 1 μmol L^-1 Mavacamten

Structure (SMILES): CCc1cc2c(=O)n(NC(=S)NC(C)C)cnc2s1 [F10]
- decrease of LVSP (20 μmol L^−1 F10): about 65%
- time to LVSP decrease (20 μmol L^−1 F10): 2 to 3 min
- LVEDP (20 μmol L^−1 F10, baseline 1.9 ± 0.2): 22.0 ± 1.1 mmHg
- Coronary flow (20 μmol L^−1 F10, baseline 15.6 ± 1.7): 16.7 ± 2.3 mL/min
- LVSP (left ventricular systolic pressure) (20 μmol L^−1 F10, baseline 168.0 ± 8.5): 58.3 ± 2.2 mmHg and ~60 mmHg
- Heart rate (20 μmol L^−1 F10, baseline 303 ± 8): 300 ± 4 bpm
- dP dt-1max (20 μmol L^−1 F10, baseline 3978.8 ± 108.0): 1329.0 ± 153.8 mmHg s-1
- dP dt-1min (20 μmol L^−1 F10, baseline -3352.4 ± 134.4): -1300.0 ± 104.2 mmHg s-1
- effect on coronary perfusion / coronary flow [1]: without, however, affecting
- effect on heart rate [1]: without, however, affecting
- effect on left ventricular end-diastolic pressure (LVEDP) [1]: slightly increased
- Max (Figure 5c) (Time 0 min): 4538.86 and 3737.57 and 4104.74 and 3514.73
- Max (Figure 5c) (Time 1 min): 4533.2 and 3831.26 and 4064.23 and 3491.94
- Max (Figure 5c) (Time 2 min): 4496.16 and 3879.38 and 4046.5 and 3811.01
- Max (Figure 5c) (Time 3 min): 4752.62 and 3481.82 and 4079.42 and 3811
- Max (Figure 5c) (Time 4 min): 4748.26 and 3745.17 and 3942.68 and 3866.71
- Max (Figure 5c) (Time 5 min): 4784.79 and 3724.91 and 3914.83 and 3735.04
- Max (Figure 5c) (Time 6 min): 4906.21 and 3922.42 and 4049.03 and 3689.46
- Max (Figure 5c) (Time 7 min): 4229.13 and 4155.39 and 4130.07 and 3504.61
- Max (Figure 5c) (Time 8 min): 3838.64 and 3904.7 and 4175.65 and 3570.44
- Max (Figure 5c) (Time 9 min): 4069.64 and 3864.18 and 4233.89 and 3747.7
- Max (Figure 5c) (Time 10 min): 4016.14 and 3757.83 and 4254.14 and 3608.43
- LVEDP, individual hearts [2]: 15.6 and 9.2 (2×) and 12.7
- LVSP, individual hearts [2]: 111 and 115 and 127 and 112
- Max (Figure 5c) (Time 11 min): 2272.52 and 2689.23 and 2643.65 and 2375.23
- LVEDP, individual hearts [3]: 29.6 and 15 and 19.6 and 15.9
- LVSP, individual hearts [3]: 61 and 72 and 67 and 69
- Max (Figure 5c) (Time 12 min): 1178.7 and 1696.59 and 1306.63 and 1372.47
- LVEDP, individual hearts [4]: 33.1 and 16.4 and 22.8 and 17.5
- LVSP, individual hearts [4]: 53 and 61 and 54 and 64
- Max (Figure 5c) (Time 13 min): 944.61 and 1258.52 and 1063.54 and 1212.94
- LVEDP, individual hearts [5]: 33.5 and 16.7 and 22.2 and 17.6
- LVSP, individual hearts [5]: 53 and 62 and 55 and 63
- LVEDP, individual hearts [6]: 24.3 and 20.65 and 23.5 and 19.6
- LVSP, individual hearts [6]: 54 and 60 and 59 and 62
- Max (Figure 5c) (Time 15 min): 1778.6 and 1228.13 and 1081.26
- LVEDP, individual hearts (Time 16 min, after washout): 10.1 and 9 and 13.9 and 11.2
- LVSP, individual hearts (Time 16 min, after washout): 56 and 118 and 105 and 99
- Max (Figure 5c) (Time 16 min): 3660.62 and 2787.98 and 2279.01 and 1886.51
- LVEDP, individual hearts (Time 17 min, after washout): 4.9 and 3.7 and 8.8 and 5.7
- LVSP, individual hearts (Time 17 min, after washout): 80 and 162 and 174 and 148
- Max (Figure 5c) (Time 17 min): 4729.41 and 3935.08 and 3990.79 and 3096.92
- LVEDP, individual hearts (Time 18 min, after washout): 3.9 and 2 and 7.3 (2×)
- LVSP, individual hearts (Time 18 min, after washout): 157 and 184 and 161 and 128
- Max (Figure 5c) (Time 18 min): 4833.67 and 4428.87 and 3509.67 and 2539.83
- LVEDP, individual hearts (Time 19 min, after washout): 4.5 and 0 and 5.9 and 6.4
- LVSP, individual hearts (Time 19 min, after washout): 189 and 183 and 170 and 127
- Max (Figure 5c) (Time 19 min): 4740.03 and 4469.38 and 3319.75 and 2476.52
- LVEDP, individual hearts (Time 20 min, after washout): 4.8 and 1.5 and 7.4 and 6.4
- LVSP, individual hearts (Time 20 min, after washout): 198 and 188 and 151 and 124
- Max (Figure 5c) (Time 20 min): 4601.11 and 4596 and 3177.95 and 2499.31
- LVEDP, individual hearts (Time 21 min, after washout): 3.4 and 1.5 and 7.5 and 6
- LVSP, individual hearts (Time 21 min, after washout): 199 and 191 and 151 and 124
- Max (Figure 5c) (Time 21 min): 4625.81 and 4497.24 and 3228.59 and 2473.99
- LVEDP, individual hearts (Time 22 min, after washout): 0.7 and 0.5 and 7.5 and 6.6
- LVSP, individual hearts (Time 22 min, after washout): 200 and 181 and 145 and 127
- Max (Figure 5c) (Time 22 min): 4517.25 and 4112.34 and 3099.45 and 2489.18
- LVEDP, individual hearts (Time 23 min, after washout): 3.5 and 0.4 and 5.8 and 6.4
- LVSP, individual hearts (Time 23 min, after washout): 202 and 174 and 144 and 129
- Max (Figure 5c) (Time 23 min): 4435.96 and 3988.26 and 3074.13 and 2524.63
- LVEDP, individual hearts (Time 24 min, after washout): 3.4 and 1.5 and 6.4 and 5.5
- LVSP, individual hearts (Time 24 min, after washout): 196 and 173 and 146 and 133
- Max (Figure 5c) (Time 24 min): 4141.16 and 3968 and 3132.37 and 2582.87
- LVEDP, individual hearts (Time 25 min, after washout): 2.4 and 0.2 and 5.3 and 4.7
- LVSP, individual hearts (Time 25 min, after washout): 195 and 173 and 151 and 139
- Max (Figure 5c) (Time 25 min): 4228.11 and 3945.21 and 3241.25 and 2668.97
- LVSP representative trace, OFF (after washout, t 0 s): 26.9301 mmHg
- LVSP representative trace, OFF (after washout, t 10 s): 27.9144 mmHg
- LVSP representative trace, OFF (after washout, t 20 s): 30.1929 mmHg
- LVSP representative trace, OFF (after washout, t 30 s): 33.9204 mmHg
- LVSP representative trace, OFF (after washout, t 40 s): 39.0616 mmHg
- LVSP representative trace, OFF (after washout, t 50 s): 45.8972 mmHg
- LVSP representative trace, OFF (after washout, t 60 s): 54.0831 mmHg
- LVSP representative trace, OFF (after washout, t 70 s): 63.6019 mmHg
- LVSP representative trace, OFF (after washout, t 80 s): 75.1964 mmHg
- LVSP representative trace, OFF (after washout, t 90 s): 88.9731 mmHg
- LVSP representative trace, OFF (after washout, t 100 s): 99.8102 mmHg
- LVSP representative trace, OFF (after washout, t 110 s): 110.826 mmHg
- LVSP representative trace, OFF (after washout, t 120 s): 122.733 mmHg
- LVSP representative trace, OFF (after washout, t 130 s): 132.379 mmHg
- LVSP representative trace, OFF (after washout, t 140 s): 138.465 mmHg
- LVSP representative trace, OFF (after washout, t 150 s): 148.942 mmHg
- LVSP representative trace, OFF (after washout, t 160 s): 154.992 mmHg
- LVSP representative trace, OFF (after washout, t 170 s): 158.488 mmHg
- LVSP representative trace, OFF (after washout, t 180 s): 163.133 mmHg
- LVSP representative trace, OFF (after washout, t 190 s): 167.458 mmHg
- LVSP representative trace, OFF (after washout, t 200 s): 171.598 mmHg
- LVSP representative trace, OFF (after washout, t 210 s): 175.866 mmHg
- LVSP representative trace, OFF (after washout, t 220 s): 181.264 mmHg
- LVSP representative trace, OFF (after washout, t 230 s): 184.759 mmHg
- LVSP representative trace, OFF (after washout, t 240 s): 185.799 mmHg
- LVSP representative trace, ON (t 0 s): 184.006 mmHg
- LVSP representative trace, ON (t 10 s): 181.455 mmHg
- LVSP representative trace, ON (t 20 s): 172.654 mmHg
- LVSP representative trace, ON (t 30 s): 155.565 mmHg
- LVSP representative trace, ON (t 40 s): 123.466 mmHg
- LVSP representative trace, ON (t 50 s): 94.0285 mmHg
- LVSP representative trace, ON (t 60 s): 73.0453 mmHg
- LVSP representative trace, ON (t 70 s): 48.8284 mmHg
- LVSP representative trace, ON (t 80 s): 40.271 mmHg
- LVSP representative trace, ON (t 90 s): 34.4969 mmHg
- LVSP representative trace, ON (t 100 s): 31.9133 mmHg
- LVSP representative trace, ON (t 110 s): 30.398 mmHg
- LVSP representative trace, ON (t 120 s): 28.7612 mmHg
- LVSP representative trace, ON (t 130 s): 28.2624 mmHg
- LVSP representative trace, ON (t 140 s): 27.1705 mmHg
- Coronary flow (individual hearts): 18.7 mL/min and 18.0 mL/min and 20.0 mL/min and 10.0 mL/min
- Heart rate (individual hearts): 295.0 bpm and 311.0 bpm and 292.0 bpm and 302.0 bpm
- LVEDP (individual hearts): 30.3 mmHg and 17.9 mmHg and 22.8 mmHg and 18.2 mmHg
- LVSP (individual hearts): 53.3 mmHg and 61.0 mmHg and 56.0 mmHg and 63.0 mmHg
- dP dt-1max (individual hearts): 1778.6 mmHg s-1 and 1228.1 mmHg s-1 (2×) and 1081.3 mmHg s-1
- dP dt-1min (individual hearts): -1606.8 mmHg s-1 and -1233.2 mmHg s-1 and -1142.0 mmHg s-1 and -1218.0 mmHg s-1
- reversibility of the effect on washout (perfusion with KH solution in the absence of F10): completely reversible
